Patent US20210322545A1 (priority 2016, published 2021)

Test system: cancer cell lines
Type: cell-based

| Substance | synergy with SMC using recombinant cytokines |
| --- | --- |
| IFNγ | recapitulated |
| IFNα | recapitulated |
